The values below come from patent publication EP0591583B1, “Benzo (f) quinolinones as 5-alpha-reductase inhibitors” (ELI LILLY AND COMPANY, priority 1992, dated 1994).

The structures appear in SMILES notation.

The first assay addresses T1, 5α-reductase (Homo sapiens, UniProt P18405).
T1 construct: host or cells: Hs68 human genital skin fibroblasts
T1 sequence (P18405 1-259): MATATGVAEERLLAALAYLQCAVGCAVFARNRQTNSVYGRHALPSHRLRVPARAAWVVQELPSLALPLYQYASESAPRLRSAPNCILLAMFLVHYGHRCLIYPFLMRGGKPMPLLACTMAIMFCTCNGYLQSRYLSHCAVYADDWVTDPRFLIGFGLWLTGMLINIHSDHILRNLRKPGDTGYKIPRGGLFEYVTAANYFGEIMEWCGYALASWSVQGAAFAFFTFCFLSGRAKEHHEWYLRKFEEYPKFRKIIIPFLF
Briefly: 5α-Reductase activity in Hs68 human genital skin fibroblasts (conversion of labeled testosterone, TLC analysis). As to conditions: Hs68. The class given is cell-based. As to the method:
Cell Culture: 5α-Reductase activity was measured using Hs68 human genital skin fibroblasts which were originally purchased from the American Type Culture Collection (Rockville, MD). The cells were grown in Dulbecco's Modified Eagle's Medium (DMEM) plus 10% stripped fetal bovine serum which was supplemented with amphotericin B ([…]) and gentamicin ([…]) (GIBCO, Grand Island, NY). The serum was stripped of endogenous steroids by incubation with dextran-coated charcoal prior to its addition to the media. The cells were maintained at 37°C in an atmosphere of 95% air, 5% CO2 and were passaged every 7-10 days by exposure to a trypsin-EDTA solution (0.025% trypsin, 0.265 mM EDTA). Prior to the assay the Hs68 cells were harvested and plated in Falcon 6-well plates (Becton Dickinson Labware, Lincoln Park, NJ) at a density of 6 x 10^4 cells per well. The cells were allowed to grow for 4-5 days or until they reached approximately 80% confluence.
Assay Method I: The substrate was prepared by dissolving unlabeled testosterone (Sigma Chemical Co., St. Louis, MO) in absolute ethanol followed by the addition of [7-^3H (N)]-testosterone (23.3 Ci/mmole, New England Nuclear, Boston, MA). The steroid solution was taken to dryness under a stream of nitrogen and then reconstituted in media.
Assay Method II: The substrate used for this method was [^14C]-testosterone (50 mCi/mmol) (New England Nuclear, Boston, MA). An aliquot of the substrate was taken to dryness under a stream of nitrogen. After the addition of 30 µl of ethanol, the testosterone was dissolved in an appropriate volume of media.
Sample Preparation: The test compounds were brought up in absolute ethanol in order to achieve the desired concentration. Subsequent dilutions of the test compounds with media were performed by the Biomek 1000 Automated Laboratory Workstation (Beckman Instruments, Palo Alto, CA). The existing media in the sample wells was aspirated and replaced with fresh media. Test compound was then added to the wells followed by the addition of 0.5 ml of substrate. The volume of the incubation mixture was maintained at 2.0 ml. The final substrate concentration was 12 µM. The concentration of the test compounds ranged from 0.001-150 µM. An additional three wells (background) containing media and substrate but no cells were also included to account for the non-enzymatic metabolism of the substrate. The plates were returned to the incubator and incubated for four hours.
At the end of the incubation the media was collected and transferred to an extraction tube containing 5 ml of toluene-ethanol (9:1), to which has been added 20-250 µg each of unlabeled carrier steroids (estriol, estradiol, estrone, 5α-androstan-3α,17β-diol, 5α-androstan-3β,17β-diol, 4-androstene-3,17-dione, 5α-androstan-3,17-dione, testosterone, and 5α-dihydrotestosterone) (Steraloids, Inc., Wilton, NH). In the case of Assay Method I the extraction tube also contained 1,000 and 10,000 dpm of [4-^14C]-dihydrotestosterone (50-60 mCi/mmol) and [4-^14C]-testosterone (50 mCi/mmol) (New England Nuclear, Boston, MA), respectively. The [^14C]-steroids were included as recovery standards to quantify procedural losses. A small amount of NaCl was also added to the extraction tubes to prevent foaming. The samples were vortexed for approximately 30 seconds and then centrifuged for 10 minutes at 500 x g. The organic phase was collected and the samples taken to dryness, redissolved in dichloromethane-methanol (9:1) and were analyzed by thin layer chromatography using one of the methods described below.
Chromatography Method I (two-dimensional): The extracted samples were appled to silica gel 60F254, 0.25 mm thick, thin layer chromatography plates (EM Science, Cincinnati, OH). The plates were developed in the first dimension with a solvent system containing dichloromethane-ethyl acetate-methanol-acetic acid (160:38:1.5:0.5, Mallinckrodt Inc., Paris, KY).
Consider `CN1C(=O)CC[C@@H]2c3ccc(Cl)cc3CC[C@H]21` (racemic) [Example 6, trans-dl-8-chloro-4-methyl-1,2,3,4,4a,5,6,10b-octahydrobenzo[f]quinolin-3-one], for which at 1 µM the inhibition was 100%.

The assay is the same for the next values; noted with them: Hs68, test compound 0.316 µM; Hs68 cells; substrate testosterone 12 µM; incubated four hours; read-out: % Inhibition.
Regarding `CN1C(=O)CC[C@@H]2c3ccc(I)cc3CC[C@H]21` (racemic) [Example 3, trans-dl-8-iodo-4-methyl-1,2,3,4,4a,5,6,10b-octahydrobenzo[f]-quinolin-3-one], the inhibition – broadly, how much of the control response was suppressed – at 0.316 µM came to 100%.

With `O=C1CC[C@@H]2c3cc(Cl)c(Cl)cc3CC[C@H]2N1` (racemic) [Example 4, trans-dl-8,9-dichloro-1,2,3,4,4a,5,6,10b-octahydrobenzo[f]quinolin-3-one], the inhibition at 0.316 µM was determined as 82.1%.

As for `CCOC(=O)C=Cc1ccc2c(c1)CCC1C2CCC(=O)N1C` (racemic) [Example 16, trans-dl-8-ethoxycarbonylethenediyl-4-methyl-1,2,3,4,4a,5,6,10b-octahydrobenzo[f]quinolin-3-one], the inhibition at 0.316 µM is 80%.

`CCOC(=O)CCc1ccc2c(c1)CCC1C2CCC(=O)N1C` (racemic) [Example 22, trans-dl-8-ethoxycarbonylethanediyl-4-methyl-1,2,3,4,4a,5,6,10b-octahydrobenzo[f]quinolin-3-one]: the inhibition at 0.316 µM came out at 40.7%.

Regarding `COC(=O)C=Cc1ccc2c(c1)CCC1C2CCC(=O)N1C` (racemic) [Example 23, trans-dl-8-methoxycarbonylethenediyl-4-methyl-1,2,3,4,4a,5,6,10b-octahydrobenzo[f]quinolin-3-one], the inhibition at 0.316 µM was 76.5%.

Consider `CN1C(=O)CCC2c3ccc(C=CC(=O)O)cc3CCC21` (racemic) [Example 24, trans-dl-8-carboxyethenediyl-4-methyl-1,2,3,4,4a,5,6,10b-octahydrobenzo[f]quinolin-3-one], for which the inhibition at 0.316 µM worked out at 4.96%.

For the molecule `CN1C(=O)CCC2c3ccc(C=CC(=O)NC(C)(C)C)cc3CCC21` (racemic) [Example 25, trans-dl-8-t-butylaminocarbonylethenediyl-4-methyl-1,2,3,4,4a,5,6,10b-octahydrobenzo[f]quinolin-3-one], the inhibition at 0.316 µM turned out to be 35.9%.

Turning to `CC1(C)CC2NC(=O)CCC2c2ccc(Br)cc21` (racemic) [Example 27, trans-dl-8-bromo-6,6-dimethyl-1,2,3,4,4a,5,6,10b-octahydrobenzo[f]quinolin-3-one], the inhibition at 0.316 µM amounted to 44.7%.

The assay is the same for the next values; noted with them: Hs68, test compound 1.00 µM; Hs68 cells; substrate testosterone 12 µM; incubated four hours.
For the molecule `CN1C(=O)CC[C@@H]2c3ccc(Br)cc3CC[C@H]21` (racemic) [Example 1A, trans-dl-8-bromo-4-methyl-1,2,3,4,4a,5,6,10b-octahydrobenzo[f]quinolin-3-one], 1 µM produced 98% inhibition.

In turn, `CN1C(=O)CC[C@@H]2c3ccc(Br)cc3CC[C@@H]21` (racemic) [Example 1B, cis-dl-8-bromo-4-methyl-1,2,3,4,4a,5,6,10b-octahydrobenzo[f]quinolin-3-one] yielded an inhibition at 1 µM of 92.7%.

In turn, `CN1C(=O)CC[C@@H]2c3ccc(Cl)cc3CC[C@@H]21` (racemic) [Example 7, cis-dl-8-chloro-4-methyl-1,2,3,4,4a,5,6,10b-octahydrobenzo[f]quinolin-3-one] showed an inhibition at 1 µM of 100%.

The same assay, now with this note: Hs68, test compound 1.00 µM; Hs68 cells; substrate testosterone 12 µM; incubated four hours; read-out: % Inhibition.
For `O=C1CC[C@@H]2c3ccc(Br)cc3CC[C@H]2N1` (racemic) [Example 2, trans-dl-8-bromo-1,2,3,4,4a,5,6,10b-octahydrobenzo[f]quinolin-3-one], the inhibition at 1 µM stood at 100%.

On to `CN1C(=O)CC[C@@H]2c3cc(Cl)c(Cl)cc3CC[C@H]21` (racemic) [Example 5, trans-dl-8,9-dichloro-4-methyl-1,2,3,4,4a,5,6,10b-octahydrobenzo[f]quinolin-3-one], for which the inhibition at 1 µM was found to be 100%.

On to `Cc1ccc2c(c1)CC[C@@H]1[C@@H]2CCC(=O)N1C` (racemic) [Example 8, trans-dl-4,8-dimethyl-1,2,3,4,4a,5,6,10b-octahydrobenzo[f]quinolin-3-one], for which the inhibition at 1 µM was found to be 100%.

As to `Cc1ccc2c(c1)CC[C@H]1[C@@H]2CCC(=O)N1C` (racemic) [Example 9, cis-dl-4,8-dimethyl-1,2,3,4,4a,5,6,10b-octahydrobenzo[f]quinolin-3-one], the inhibition at 1 µM was 100%.

Turning to `CN1C(=O)CC[C@@H]2c3ccc(F)cc3CC[C@H]21` (racemic) [Example 10, trans-dl-8-fluoro-4-methyl-1,2,3,4,4a,5,6,10b-octahydrobenzo[f]quinolin-3-one], the inhibition at 1 µM is 100%.

With `CN1C(=O)CC[C@@H]2c3ccc(F)cc3CC[C@@H]21` (racemic) [Example 11, cis-dl-8-fluoro-4-methyl-1,2,3,4,4a,5,6,10b-octahydrobenzo[f]quinolin-3-one], the inhibition at 1 µM was found to be 59.2%.

In the case of `O=C1CCC2c3ccc(Cl)cc3CCC2N1` (racemic) [Example 17, trans-dl-8-chloro-1,2,3,4,4a,5,6,10b-octahydrobenzo[f]quinolin-3-one], the inhibition at 1 µM was 100%.

Regarding `COc1ccc2c(c1)CCC1NC(=O)CCC21` (racemic) [Example 18, trans-dl-8-methoxy-1,2,3,4,4a,5,6,10b-octahydrobenzo[f]quinolin-3-one], the inhibition at 1 µM was found to be 69.8%.

As for `COc1ccc2c(c1)CCC1C2CCC(=O)N1C` (racemic) [Example 19, trans-dl-8-methoxy-4-methyl-1,2,3,4,4a,5,6,10b-octahydrobenzo[f]quinolin-3-one], the inhibition at 1 µM is 93.2%.

As for `Cc1ccc2c(c1)CCC1NC(=O)CCC21` (racemic) [Example 20, trans-dl-8-methyl-1,2,3,4,4a,5,6,10b-octahydrobenzo[f]quinolin-3-one], the inhibition at 1 µM came out at 86.6%.

`O=C1CCC2c3ccccc3CCC2N1` (racemic) [Example 21, trans-dl-1,2,3,4,4a,5,6,10b-octahydrobenzo[f]quinolin-3-one]: the inhibition at 1 µM was found to be 100%.

Still in this assay, the particulars now being: Hs68, test compound 3.16 µM; Hs68 cells; substrate testosterone 12 µM; incubated four hours.
On to `O=C1CCC2c3ccc(F)cc3CCC2N1` (racemic) [Example 15, trans-dl-8-fluoro-1,2,3,4,4a,5,6,10b-octahydrobenzo[f]quinolin-3-one], for which the inhibition at 3.16 µM turned out to be 100%.

Still in this assay, the particulars now being: Hs68, test compound 15.00 µM; Hs68 cells; substrate testosterone 12 µM; incubated four hours.
As to `O=C1CCC2c3ccccc3CCC2N1` (racemic) [Example 14, cis-dl-1,2,3,4,4a,5,6,10b-octa-hydrobenzo[f]quinolin-3-one], the inhibition at 15 µM is 31.7%.

The same assay, now with this note: test compound 0.316 µM; Hs68 cells; substrate testosterone 12 µM; incubated four hours.
As to `CC1CC2c3ccc(Cl)cc3CCC2N(C)C1=O` (racemic) [Example 26A, trans-dl-8-chloro-2-(α-methyl)-4-methyl-1,2,3,4,4a,5,6,10b-octahydrobenzo[f]quinolin-3-one], the % Inhibition (usually the relative decrease from the control value, in per cent) came to 82.56%.

On to `CC1CC2c3ccc(Cl)cc3CCC2N(C)C1=O` (racemic) [Example 26B, trans-dl-8-chloro-2-(β-methyl)-4-methyl-1,2,3,4,4a,5,6,10b-octahydrobenzo[f]quinolin-3-one], for which the “% Inhibition” value is reported as 76.36%.
